Assay results as given in patent US20080287445A1, “Prokineticin 2 receptor antagonists” (priority 2005, published 2008).
“And” between values parts separate entries of the source, which are not always exact repeats. Identical values can stand only once.

Molecular target: T1, GPR73 (prokineticin 1 receptor) (Homo sapiens, UniProt Q8TCW9)
T1 construct: expressed in transfected cells; host or cells: HEK 293
Experiment: PK1 functional assay: Ca2+ mobilization screening for PK1 antagonists on the FLIPR
Type: cell-based
Conditions: HEK 293 GPR73 cells, multiple values = multiple testing; for Ca^2+ Mobilization % Inh @ 10 μM: 10 μM compound; for inhibition at 10 µM: HEK293, 10 μM compound, read-out: Ca^2+ Mobilization % Inh @ 10 μM; for IC50: PK1 ligand preparation at its EC50, read-out: Ca^2+ Mobilization IC50
Procedure, shortened: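 HEK293 cells expressing human GPR73 were loaded with Calcium Plus dye, then on FLIPR given compound for 4 min 15 s before PK1 ligand at its predetermined EC50. Baseline-subtracted fluorescence over 1 min 45 s gave percent inhibition versus maximal signal; IC50 fitted.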

T1 sequence (Q8TCW9 whole entry, species assumed): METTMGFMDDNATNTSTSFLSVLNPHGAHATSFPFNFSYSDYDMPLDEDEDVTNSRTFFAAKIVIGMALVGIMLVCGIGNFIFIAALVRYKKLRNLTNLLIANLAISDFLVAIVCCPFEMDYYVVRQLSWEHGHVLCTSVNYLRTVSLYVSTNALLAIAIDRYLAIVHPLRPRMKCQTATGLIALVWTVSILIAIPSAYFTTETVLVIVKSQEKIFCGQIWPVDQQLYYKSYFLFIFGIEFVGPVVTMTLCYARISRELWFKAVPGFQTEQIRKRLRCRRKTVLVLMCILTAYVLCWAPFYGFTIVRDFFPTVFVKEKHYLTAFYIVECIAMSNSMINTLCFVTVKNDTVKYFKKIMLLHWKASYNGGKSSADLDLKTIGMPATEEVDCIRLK

SMILES | Ca^2+ Mobilization % Inh @ 10 μM [%] | inhibition at 10 µM [%] | IC50
Cc1cc(C)[n+]([O-])c(N)c1CNc1nc(=O)n(Cc2ccc3c(c2)CCO3)c(=O)n1Cc1ccc(OC(F)F)cc1 [Cpd 233, 6-[(2-Amino-4,6-dimethyl-1-oxy-pyridin-3-ylmethyl)-amino]-1-(4-difluoromethoxy-benzyl)-3-(2,3-dihydro-benzofuran-5-ylmethyl)-1H-[1,3,5]triazine-2,4-dione] | 97 | 96 | 69 nM and 130 nM
COc1ccc(Cn2c(NCc3cccnc3NCCN(C)C)nc(=O)n(Cc3ccc(OC)cc3)c2=O)cc1 [Cpd 51] | – | 93 | 207 nM
COc1ccc(Cn2c(NCc3cccc(C)n3)nc(=O)n(Cc3ccc(OC)cc3)c2=O)cc1 [Cpd 267] | – | 10 | > 10000 nM
COc1ccc(Cn2c(NCc3c(N)nc4c(c3C)CCC4)nc(=O)n(Cc3ccc(OC)cc3)c2=O)cc1 [Cpd 264] | – | 95 | 74 nM
COc1ccc(Cn2c(NCc3cnc(C)nc3N)nc(=O)n(Cc3ccc(OC)cc3)c2=O)cc1 [Cpd 248] | – | 103 | 34 nM
COc1ccc(Cn2c(=O)nc(NCc3c(C)cc(C)nc3N)n(Cc3cccc4[nH]ccc34)c2=O)cc1 [Cpd 155, 6-[(2-Amino-4,6-dimethyl-pyridin-3-ylmethyl)-amino]-1-(1H-indol-4-ylmethyl)-3-(4-methoxy-benzyl)-1H-[1,3,5]triazine-2,4-dione] | 100 | 98 | 2 nM and 7 nM
Cc1cc(C)c(CNc2nc(=O)n(Cc3ccc4c(c3)nnn4C)c(=O)n2Cc2ccc(OC(F)F)cc2)cn1 [Cpd 192] | 82 | 80 | 146 nM and 1060 nM
COc1ccc(Cn2c(=O)nc(NCc3cccnc3N)n(Cc3ccc4c(c3)CCO4)c2=O)cc1 [Cpd 125] | 99 | 97 | 54 nM and 14 nM
COCCCCCn1c(NCc2cccnc2N)nc(=O)n(Cc2ccc(Cl)cc2)c1=O [Cpd 256] | – | 99 | 118 nM
Cc1cc(C)c(CNc2nc(=O)n(Cc3ccc(F)cc3)c(=O)n2Cc2ccc(OC(F)F)cc2)cn1 [Cpd 160, 1-(4-Difluoromethoxy-benzyl)-6-[(4,6-dimethyl-pyridin-3-ylmethyl)-amino]-3-(4-fluoro-benzyl)-1H-[1,3,5]triazine-2,4-dione] | – | 71 | 628 nM
COc1ccc(Cn2c(NCc3cnc(C)cc3C)nc(=O)n(Cc3cccc(F)c3)c2=O)cc1 [Cpd 112] | – | 74 | 2550 nM
COc1ccc(Cn2c(NCCc3cccnc3N)nc(=O)n(Cc3ccc(F)cc3)c2=O)cc1 [Cpd 10] | – | 82 | 1250 nM
COc1ccc(Cn2c(NCc3cccnc3N)nc(=O)n(Cc3ccc(C(F)(F)F)cc3)c2=O)cc1 [Cpd 49] | – | 64 | 3170 nM
Cc1cnc(CNc2nc(=O)n(Cc3ccc4c(c3)CCO4)c(=O)n2Cc2ccc(OC(F)F)cc2)cn1 [Cpd 261] | – | 87 | 772 nM
Nc1ncccc1CNc1nc(=O)n(Cc2ccc3snnc3c2)c(=O)n1Cc1ccc2c(c1)CCO2 [Cpd 242] | – | 95 | 251 nM
CCCCCCn1c(NCc2cccnc2N)nc(=O)n(Cc2ccc(OC)cc2)c1=O [Cpd 79] | – | 85 | 679 nM
COc1ccc(Cn2c(NCc3cccnc3N3CCCC3)nc(=O)n(Cc3ccc(F)cc3)c2=O)cc1 [Cpd 11] | – | 54 | 6790 nM
COc1ccc(Cn2c(=O)nc(NCc3cnc(C)cc3C)n(Cc3ccc(OC)c([N+](=O)[O-])c3)c2=O)cc1 [Cpd 136] | 102 | 92 | 15 nM and 34 nM
CCN1CCCC1CNc1ncccc1CNc1nc(=O)n(Cc2ccc(OC)cc2)c(=O)n1Cc1ccc(OC)cc1 (stereo not shown) [Cpd 70] | – | 94 | 560 nM

SMILES | Ca^2+ Mobilization % Inh @ 10 μM [%] | inhibition at 10 µM [%] | IC50
COc1ccc(Cn2c(NCc3cccnc3N)nc(=O)n(Cc3ccc(SC)cc3)c2=O)cc1 [Cpd 24] | – | 60 | 115 nM
Cc1cc(COCc2ccccc2)c(CNc2nc(=O)n(Cc3ccc4c(c3)CCO4)c(=O)n2Cc2ccc(OC(F)F)cc2)c(N)n1 [Cpd 270, 6-[(2-Amino-4-benzyloxymethyl-6-methyl-pyridin-3-ylmethyl)-amino]-1-(4-difluoromethoxy-benzyl)-3-(2,3-dihydro-benzofuran-5-ylmethyl)-1H-[1,3,5]triazine-2,4-dione] | – | 12 | > 10000 nM
COc1ccc(Cn2c(NCc3ccc(-c4ccc(F)cc4)nc3)nc(=O)n(Cc3ccc(OC)cc3)c2=O)cc1 [Cpd 25] | – | 89 | 2740 nM
COc1ccc(Cn2c(=O)nc(NCc3cccnc3N)n(Cc3ccc(OC)c([N+](=O)[O-])c3)c2=O)cc1 [Cpd 137] | – | 68 | 1040 nM
COCCNc1ncccc1CNc1nc(=O)n(Cc2ccc(OC)cc2)c(=O)n1Cc1ccc(OC)cc1 [Cpd 50] | 100 | 91 | 24 nM and 72 nM
COc1ccc(Cn2c(NCc3cccnc3)nc(=O)n(Cc3ccc(Cl)c(Cl)c3)c2=O)cc1 [Cpd 2] | – | 47 | > 10000 nM
COC(=O)CCCn1c(NCc2cnc(C)cc2C)nc(=O)n(Cc2ccc(OC)cc2)c1=O [Cpd 153] | – | 81 | 703 nM
COCCNc1ncccc1CNc1nc(=O)n(CCc2ccc([N+](=O)[O-])cc2)c(=O)n1Cc1ccc(OC)cc1 [Cpd 74] | – | 54 | 7460 nM
Cc1cc(C)c(CNc2nc(=O)n(Cc3ccc(C#N)cc3)c(=O)n2Cc2ccc(OC(F)F)cc2)cn1 [Cpd 164] | – | 64 | 2010 nM
COc1ccc(Cn2c(NCc3cccnc3N)nc(=O)n(Cc3ccc(OC(F)F)cc3)c2=O)cc1 [Cpd 84] | – | 70 | 1220 nM
Cc1cc(C)c(CNc2nc(=O)n(Cc3ccc(-n4cccn4)cc3)c(=O)n2Cc2ccc(OC(F)F)cc2)cn1 [Cpd 158] | – | 62 | 3840 nM
Cn1nnc2cc(Cn3c(=O)nc(NCc4cccnc4N)n(Cc4ccc5c(c4)CCO5)c3=O)ccc21 [Cpd 244] | – | 94 | 121 nM
COc1ccc(Cn2c(NC(C)c3ccccn3)nc(=O)n(Cc3ccc(OC)cc3)c2=O)cc1 (stereo not shown) [Cpd 234] | – | 66 | 2590 nM
COc1ccc(Cn2c(NCc3cnc(C)cc3C)cc(=O)n(Cc3ccc(OC)cc3)c2=O)cc1 [Cpd 61] | 101 | 87 | –
COc1ccc(Cn2c(NCc3cnc(C)cc3C)nc(=O)n(Cc3cccc(OC)c3)c2=O)cc1 [Cpd 111] | – | 57 | 7880 nM
COc1ccc(Cn2c(=O)nc(NCc3cccnc3N)n(Cc3ccccc3C#N)c2=O)cc1 [Cpd 88] | – | 41 | > 10000 nM
Cc1cc(C)c(CNc2nc(=O)n(Cc3ccc(C(F)(F)F)cc3)c(=O)n2Cc2ccc(OC(F)F)cc2)cn1 [Cpd 162] | – | 31 | > 10000 nM
COc1ccc(Cn2c(=O)nc(NCc3cnc(C)cc3C)n(Cc3ccccc3OC(F)(F)F)c2=O)cc1 [Cpd 105] | – | 85 | 437 nM
COc1ccc(Cn2c(=O)nc(NCc3cccnc3N)n(Cc3ccc(SC)cc3)c2=O)cc1 [Cpd 75] | – | 99 | 131 nM
